Measured values reported in patent US20160151503A1, “COMPOSITIONS AND PREPARATION METHODS OF LOW MELTING IONIC SALTS OF POORLY-WATER SOLUBLE DRUGS” (MW ENCAP LIMITED, priority 2013, published 2016).
Structures can show the parent of a compound that is named as a salt.

Columns and labels:
[1] = Drug solubility in exemplar lipid formulations (SEDDS) and individual excipients
Method: Where lipid based formulations have been employed, formulations were made up in glass vials by weighing the appropriate quantities of excipient directly into the vial, followed by mixing
In some cases the solubility of the low melting ionic salt in individual excipients was also measured.
Drug solubility in each formulation was assessed in one of two ways. Firstly, quantitatively, by incubating formulations with excess drug at 37 degrees and taking samples over time. These samples were centrifuged to pellet solid material and the drug concentration in the formulation assessed by HPLC.

[2] = In vitro dispersion and digestion of cinnarizine decylsulfate SEDDS solution in simulated intestinal fluid; format: in vitro ADME; settings: after in vitro dispersion or digestion of SEDDS solution in SIF
[3] = Equilibrium solubility in colloids formed by in vitro digestion of blank SEDDS in simulated intestinal fluid; format: physicochemical; settings: colloids from 60 min digestion of blank LC2 SEDDS (1 g in 39 mL SIF), pH 6.5, 37° C.
Method: In this experiment blank SEDDS formulation (1 g) was dispersed in 39 mL of simulated intestinal fluid. (SIF) (2 mM Tris-maleate, 1.4 mM CaCl2.H2O, 150 mM NaCl, 3 mM NaTDC, 0.75 mM PC, pH 6.5, 37° C.) and pancreatic enzymes added to stimulate digestion. The experiment was conducted at 37° C. and allowed to continue for 60 mins. […] From the data in Table 5.3 below it is apparent that synthesis of the IL increases drug affinity for intestinal colloidal phases and therefore increases solubilisation in the GI tract—consistent with the increases in exposure seen in FIG. 3

[4] = Itraconazole plasma pharmacokinetics after oral administration of comparative formulations to rats; format: in vivo; settings: same equivalent dose of ITZ FB, solution in SEDDS
Method: Note that the very low solubility of ITZ free base precludes formulation as a lipid based formulation. It is only via isolation as the IL that this possibility is realised since the solubility of the ITZ IL in lipid formulations is very much higher. All were dosed at the same dose (20 mg/kg).
The isolation of ITZ as the docusate IL increased drug solubility in the SEDDS formulation and allowed administration as a Solution in the SEDDS formulation. […] ITZ FB was not sufficiently soluble in the SEDDS formulation to allow administration as a solution in the SEDDS at any reasonable dose and was therefore dosed as a suspension in the SEDDS formulation and also as an aqueous suspension. The same dose was administered as the commercial Sporanox formulation of ITZ FB
It is apparent that the ITZ IL formulation allowed administration of a much higher ITZ dose as a solution in a lipid based formulation and that this in turn led to much higher plasma levels than the equivalent suspension formulation of the free base, or the commercial Sporanox formulation.

[5] = SEDDS: 15% soybean oil, 15% Maisine 35-1, 60% Cremophor EL, 10% EtOH
[6] = Table 8 Meclofenamic Acid, MC SEDDS
[7] = Table 7 Tolfenamic Acid, MC SEDDS

C(=C/c1ccccc1)/CN1CCN(C(c2ccccc2)c2ccccc2)CC1 [Cinnadzine free base, Cinnarizine, reference compound]
cinnarizine solubility in the lipid vehicle [1, 5]: approximately 44 mg/g

C(=C\c1ccccc1)/CN1CCN(C(c2ccccc2)c2ccccc2)CC1 [Cinnarizine-decylsulfate, Cinnarizine Decylsulfate]
incorporated drug remaining solubilized in an aqueous phase [2]: more than 95%
miscibility with the SEDDS formulation [1, 5]: essentially miscible

COc1ccc2c(c1)[C@]13CCCC[C@@H]1[C@H](C2)N(C)CC3 [Dextromethorphan, reference compound]
Solubility in MC SEDDS (mg/g) Free base equiv. ([1]; Table 5 Dextromethorphan and Metformin, MC SEDDS): <50 mg/g

CCC(C)n1ncn(-c2ccc(N3CCN(c4ccc(OCC5COC(Cn6cncn6)(c6ccc(Cl)cc6Cl)O5)cc4)CC3)cc2)c1=O (stereo not shown) [Itraconazole free base, Itraconazole, reference compound]
Solubility in simulated intestinal fluid plus lipid digestion products ([3]; listed as ITZ FB): <47 µg/mL

CCC(C)n1ncn(-c2ccc(N3CCN(c4ccc(OCC5COC(Cn6cncn6)(c6ccc(Cl)cc6Cl)O5)cc4)CC3)cc2)c1=O (stereo not shown) [Itraconazole- diocytlsulfosuccinate, Itraconazole Dioctylsulfosuccinate (Docusate)]
Solubility in simulated intestinal fluid plus lipid digestion products ([3]; listed as ITZ-docusate IL): 1720 ± 150 µg/mL
Solubility in LC^2 SEDDS (mg/g) itraconazole equiv. ([1]; LC2 SEDDS: 30% SBO, 30% Maisine, 30% CrEL, 10% EtOH): 159.8 mg/g
plasma levels compared to the commercial formulation [4]: ~2.5 fold

Cc1ccc(Cl)c(Nc2ccccc2C(=O)O)c1Cl [Meclofenamic acid, 1- hexadecyl-3- methylpyridinium salt] [Meclofenamic Acid, 1-hexadecyl-3-methylpyridinium Salt]
Solubility in MC^2 SEDDS (mg/g) Free base equiv. [1, 6]: >240 mg/g

Cc1ccc(Cl)c(Nc2ccccc2C(=O)O)c1Cl [Meclofenamic acid, N-decyl-N,N- dimethyldodecylammonium salt] [Meclofenamic Acid, N-decyl-N,N-dimethyldodecylammonium Salt]
Solubility in MC^2 SEDDS (mg/g) Free base equiv. [1, 6]: >240 mg/g

Cc1c(Cl)cccc1Nc1ccccc1C(=O)O [Tolfenamic acid dodecylammonium salt, Tolfenamic Acid, Dodecylammonium Salt]
Solubility in MC^2 SEDDS (mg/g) Free base equiv. [1, 7]: >50 mg/g

Cc1c(Cl)cccc1Nc1ccccc1C(=O)O [Tolfenamic acid, N-butyl- N,N-dimethylbutyl-N- dodecylammoni] [Tolfenamic Acid, N-butyl-N,N-dimethylbutyl-N-dodecylammonium Salt]
Solubility in MC^2 SEDDS (mg/g) Free base equiv. [1, 7]: >200 mg/g

Cc1c(Cl)cccc1Nc1ccccc1C(=O)O [Tolfenamic acid, N-decyl-N,N- dimethyldodecylammonium salt] [Tolfenamic Acid, N-decyl-N,N-dimethyldodecylammonium Salt]
Solubility in MC^2 SEDDS (mg/g) Free base equiv. [1, 7]: >200 mg/g
